Values after ≈ are worked out from the molar mass of the structure shown. Active and inactive are the calls of the source. The rule behind the calls is not given here.
Assays:
[1] = tested on: Saccharomyces cerevisiae; assay: Antifungal activity against Saccharomyces cerevisiae YAT2285 erg6 mutant at <1.0 ug/disk by paper disk method; assay type: functional, organism-based
[2] = tested on: L1210; assay: Cytotoxicity against mouse L1210 cells; assay type: functional, cell-based
[3] = tested on: Saccharomyces cerevisiae; assay: Antifungal activity against Saccharomyces cerevisiae YAT2285 erg6 mutant at 30 ug/disk by paper disk method; assay type: functional, organism-based
[4] = tested on: Saccharomyces cerevisiae; assay: Antifungal activity against Saccharomyces cerevisiae YAT2285 erg6 mutant at 100 ug/disk by paper disk method; assay type: functional, organism-based

SMILES | Activity [1] | IC50 [2] [µg/mL] | Activity [3] | Activity [4]
O=C1NC(=O)C(Br)=C1Br | Active | 0.66 (≈ 2.59 µM) | – | –
NC1=NC2c3c([nH]c(Br)c3Br)C(=O)N3C[C@H](Cl)[C@H](O)C23N1 (some centres not stated) | – | 2.5 (≈ 5.69 µM) | Active | –
O=C1C=C(Br)C(=O)N1 | Active | 1.1 (≈ 6.25 µM) | – | –
C[N+]1=CN[C@H](C(=O)[O-])C[C@@]1(C)COC(=O)c1cc(Br)c[nH]1 | – | – | – | Active

— ChEMBL document CHEMBL1156398, “Four new bioactive pyrrole-derived alkaloids from the marine sponge Axinella brevistyla” (J Nat Prod, 2001)
